# Test system: Arabidopsis wild-type plants (Col-0) detached leaves
# Test: Differential gene expression study (RNA sequencing) in senescent detached leaves
# Experimental: Comparative gene expression analysis in Arabidopsis model was performed to gain information about the reprogramming of gene transcription when senescent leaves were treated with 6-(3-methoxybenzylamino)-9-β-D-arabinofuranosylpurine (3MeOBAPA).
# For isolation of total RNA, Arabidopsis wild-type plants (Col-0) were used, which were either treated with 3MeOBAPA or left untreated. Wild-type plants were grown in soil for 30 days, and then leaves of similar size and chlorophyll content were cut and immediately used for the treatment. At least 20 detached leaves were submerged in 1×MS medium supplemented with 10 μM 3MeOBAPA. Control samples were mock treated with DMSO only. After incubation for 6 h or 48 h in the dark, detached leaves were frozen in liquid nitrogen and used for RNA isolation; 150 mg of liquid nitrogen-ground material was used per isolation. cDNA sequencing libraries were prepared with the Illumina TruSeq Stranded mRNA LT Sample Prep Kit (Illumina, San Diego, Calif.) according to standard Illumina's protocols and sequenced on HiSeq 2500 apparatus (50 bp single-end reads). […] To gain insight into the molecular mechanism of 3MeOBAPA action in Arabidopsis we decided to analyze the gene expression patterns via comparison of mock (DMSO)-treated plants with those obtained after i) short time treatment with 3MeOBAPA (6 h) and ii) long time treatment (48 h). This comparison leads to identification of group of genes with similar kinetic of expression and helps to understand possible mechanism of regulation. For data analysis, we performed ab initio method where sequencing reads were mapped to the reference genome.
structure (smiles),measurement,setting,value
COc1cccc(CNc2ncnc3c2ncn3[C@@H]2O[C@H](CO)[C@@H](O)[C@@H]2O)c1 [6-(3-methoxybenzylamino)-9-β-D-arabinofuranosylpurine],logFC AT1G02790 Polygalacturonase 4 (PGA4),"6 h, 10 μM",1.67
same,logFC AT1G05580 Cation/H(+) exchanger 23 (CHX23),"6 h, 10 μM",1.26
same,logFC AT1G10585 Basic helix-loop-helix (bHLH) DNA-binding superfamily protein,"6 h, 10 μM",0.38
same,logFC AT1G15540 2-oxoglutarate and Fe(II)-dependent oxygenase superfamily protein,"6 h, 10 μM",0.57
same,logFC AT1G19670 Chlorophyllase-1 (CLH1),"6 h, 10 μM",0.63
same,logFC AT1G55560 SKU5 similar 14 (SKS14),"6 h, 10 μM",1.71
same,logFC AT1G59860 17.6 kDa class I heat shock protein 1 (HSP17.6A),"6 h, 10 μM",0.48
same,logFC AT1G59950 NAD(P)-linked oxidoreductase superfamily protein,"6 h, 10 μM",1.08
same,logFC AT1G75830 Defensin-like protein 1.1 (PDF1.1),"6 h, 10 μM",1.06
same,logFC AT1G76640 Calcium-binding EF-hand family protein (CML39),"6 h, 10 μM",0.78
same,logFC AT2G02010 Glutamate decarboxylase 4 (GAD4),"6 h, 10 μM",0.55
same,logFC AT2G04460 Transposable element gene,"6 h, 10 μM",1.16
same,logFC AT2G18150 Peroxidase 15 (PER15),"6 h, 10 μM",0.68
same,logFC AT2G21900 WRKY transcription factor 59 (WRKY59),"6 h, 10 μM",0.54
same,logFC AT2G26010 Defensin-like protein 1.3 (PDF1.3),"6 h, 10 μM",1.47
same,logFC AT2G26020 Defensin-like protein 1.2B (PDF1.2B),"6 h, 10 μM",1.52
same,logFC AT2G26695 Ran BP2/NZF zinc finger-like superfamily protein,"6 h, 10 μM",0.50
same,logFC AT2G28210 Alpha carbonic anhydrase 2 (ATACA2),"6 h, 10 μM",0.85
same,logFC AT2G37430 Zinc finger protein ZAT11,"6 h, 10 μM",0.42
same,logFC AT2G39030 L-ornithine N5-acetyltransferase (NATA1),"6 h, 10 μM",0.56
same,logFC AT2G47040 Pectin methylesterase Vanguard1 (VGD1),"6 h, 10 μM",2.80
same,logFC AT2G47050 Plant invertase/pectin methylesterase inhibitor superfamily protein,"6 h, 10 μM",2.31
same,logFC AT3G05610 Pectinesterase/pectinesterase inhibitor 21 (PME21),"6 h, 10 μM",1.80
same,logFC AT3G07820 Pectin lyase-like superfamily protein,"6 h, 10 μM",2.22
same,logFC AT3G09340 Transmembrane amino acid transporter family protein,"6 h, 10 μM",0.55
same,logFC AT3G11340 UDP-Glycosyltransferase superfamily protein,"6 h, 10 μM",0.51
same,logFC AT3G13400 SKU5 similar 13 (SKS13),"6 h, 10 μM",0.82
same,logFC AT3G28153 Transposable element gene,"6 h, 10 μM",0.92
same,logFC AT3G28155 ARM repeat superfamily protein,"6 h, 10 μM",0.59
same,logFC AT3G44830 Putative phospholipid: diacylglycerol acyltransferase 2 (PDAT2),"6 h, 10 μM",0.38
same,logFC AT3G62710 Glycosyl hydrolase family protein,"6 h, 10 μM",1.35
same,logFC AT4G01390 TRAF-like family protein,"6 h, 10 μM",0.79
same,logFC AT4G21830 Peptide methionine sulfoxide reductase B7 (MSRB7),"6 h, 10 μM",0.55
same,"logFC AT4G22030 F-box domain, cyclin-like, F-box domain, Skp2-like protein","6 h, 10 μM",0.41
same,logFC AT4G22620 SAUR-like auxin-responsive family protein,"6 h, 10 μM",0.46
same,logFC AT4G24350 Phosphorylase superfamily protein,"6 h, 10 μM",0.64
same,logFC AT4G26010 Peroxidase 44 (PER44),"6 h, 10 μM",0.53
same,logFC AT4G31950 Cytochrome P450 82C3 (CYP82C3),"6 h, 10 μM",0.37
same,logFC AT4G35010 Beta-galactosidase 11 (BGAL11),"6 h, 10 μM",2.03
same,logFC AT4G37780 Myb domain protein 87 (MYB87),"6 h, 10 μM",0.41
same,logFC AT4G39320 Microtubule-associated protein-related,"6 h, 10 μM",0.45
same,logFC AT5G03610 GDSL esterase/lipase,"6 h, 10 μM",0.42
same,logFC AT5G12960 Putative glycosyl hydrolase,"6 h, 10 μM",1.33
same,logFC AT5G44420 Defensin-like protein 1.2A (PDF1.2A),"6 h, 10 μM",1.58
same,logFC AT5G44430 Defensin-like protein 1.2C (PDF1.2C),"6 h, 10 μM",1.75
same,logFC AT5G45880 Pollen Ole e 1 allergen and extensin family protein,"6 h, 10 μM",1.45
same,logFC AT5G52670 Copper transport family protein,"6 h, 10 μM",0.57
same,logFC AT5G61160 Agmatine coumaroyltransferase (ACT),"6 h, 10 μM",1.13
same,logFC AT5G62720 Integral membrane HPP family protein,"6 h, 10 μM",0.44
same,logFC AT5G63270 RPM1-interacting protein 4 (RIN4) family protein,"6 h, 10 μM",0.56
same,number of downregulated genes (P≤0.05),"6 h, 10 μM, vs mock",1119 genes
same,number of upregulated genes (P≤0.05),"6 h, 10 μM, vs mock",1102 genes
same,number of genes downregulated in both groups,6 h and 48 h overlap,724 genes
same,number of genes upregulated in both groups,6 h and 48 h overlap,1102 genes

# Source: US10100077B2, “6-aryl-9-glycosylpurines and use thereof” (UNIVERZITA PALACKEHO V OLOMOUCI, priority 2014, dated 2018)
